Measured values reported in US20240174716A1, “TRANSPORTER PEPTIDES AND APPLICATION THEREOF” (Vacino Biotech Co. Ltd, priority 2022, published 2024).
“And” between values parts separate entries of the source, which are not always exact repeats. Identical values can stand only once. Like-named read-outs stand apart in the source and are kept apart here. Peptide text beside a SMILES is read from it.

Key:
[1] = test system: Caco-2 cell monolayer; settings: PT-034 on top of monolayer, 37° C.
Method: In this example, the transport efficiency of the transporter peptide disclosed herein to the Caco-2 cell monolayer was tested to analyze the penetration effect of the transporter peptide on the tissue barrier, and to analyze the ability of the transporter peptide to induce transcytosis of the cell.
Caco-2 cells were plated at 2×10^4 cells/cm^2 on 24-transwell inserts (BD Falcon, 353495) in DMEM medium with 10% FBS and cultured for 21 days to form a monolayer. Monolayers were then confirmed by transepithelial electrical resistance (TEER), and the monolayers which have at least 500-600 Ω cm^2 of TEER were qualified monolayers for the following transcytosis experiment.
HPLC was conducted by using a Water ACQUITY Arc system. The chromatographic separation was performed on a C18 column (Waters XSelect HSS T3 […], 4.6 mm×250 mm). Column temperature was maintained and operated at 40° C. The mobile phase consisted of A-0.1% trifluoroacetic acid in water and B-100% methanol. Separation was performed according to the following gradient program: 0 min-10% B, 6 min-30% B, 12 min-50% B, 18 min-90% B, 23 min-10% B. The flow rate of the mobile phase was at 1 mL/min, the injection volume of the sample was 20 μL, and the total run time was within 30 mins.
The caco-2 monolayers with TEER at 680 Ω cm^2 were equilibrated in DMEM medium (serum free). […] of PT-034 (SEQ ID NO: 19) was applied to the top of Caco-2 monolayers at 37° C. Samples of both upper and lower solution were collected at 0, 0.25, 0.5, 1, 2, 6 hours. Peptides were purified from the sample solution by solid phase extraction (SPE) using C-18 tips (Cat. no. 87784, Pierce, Waltham, Massachusetts, USA). Each sample was supplemented with a final concentration of 11.43 μM PT-034 as internal control. 300 μL sample was absorbed by the C18 tip and eluted by 100 μL methanol. The sample was then subjected to HPLC analysis. The HPLC peak area was calculated at retention time of 16.9 minutes, and a standard curve was plotted for calculating the contents of the transporter peptide in the sample solutions.

[2] = In vivo imaging system (IVIS) analysis of fluorescent dye-conjugated transporter peptides; set-up: species or system BALB/c mice; settings: for half-life: BALB/c, mouse, brain, intravenous, read-out: half-life of the fluorescence in the mouse brains (converted); for quantified fluorescence signal in mouse brain: after 0.5 hour of the injection
Method: In this Example, the transporter peptide disclosed herein was administered to mice, and the distribution of the transporter peptide in the mice was detected with an in vivo fluorescence imaging system (IVIS).
One (1) mg of each transporter peptides PT-001 (SEQ ID NO: 2), PT-025 (SEQ ID NO: 11), PT-034 (SEQ ID NO: 19), and PT-031 (SEQ ID NO: 17) was dissolved in 1 mL of buffer containing 50 mM sodium bicarbonate/bicarbonate to a final concentration of 1 mg/mL. […] of 10 mg/mL fluorescent dye (VivoTag 680 XL, PerkinElmer, USA) was added to the 1 mL transporter peptide solution, and the mixture was incubated at room temperature in the dark for 1 hour. The dye-labeled product was filtered with a 3 KDa centrifugal filter device (Amicon Ultra-0.5 Centrifugal filter devices, Millipore, USA) and centrifuged at 14,000×g for 15 minutes. The fluorescent dye-conjugated transporter peptide was diluted with 1×PBS to a final volume of 0.2 mL.
BALB/c mice (BioLASCO Taiwan Co., Ltd, Taipei, Taiwan) at the age of 7-8 weeks were divided into a control group (n=1) and a test group (n=3). The mouse in the control group was administered 50 μL of fluorescent dye via tail vein injection. Mice in the group were administered 50 μL of the transporter peptide conjugated with fluorescent dye obtained above via tail vein injection. Mice were photographed using an optical imaging system (U-OI, MlLabs, Netherlands) at 0.5, 1, 2, 4, 6 and 24 hours after the injection for IVIS imaging analysis, with the excitation wavelength of 631 nm, the emission wavelength of 710 nm, and 10-second exposure time. Fluorescence signals of mouse brains were further quantified.

[3] = 10 mg/kg tail vein injection
[4] = 1 mg/kg dye-conjugated peptide, tail vein injection, 0.5, 1, 2, 4 and 6 hours after injection

SMILES	transporter peptide penetrated the Caco-2 cell monolayer ([1]; 0.25 hours)	transporter peptide penetrated the Caco-2 cell monolayer ([1]; 1 hour) [%]	transporter peptide penetrated the Caco-2 cell monolayer ([1]; 2 hours) [%]	transporter peptide penetrated the Caco-2 cell monolayer ([1]; 6 hours) [%]	distribution of fluorescent signal in mice (IVIS) ([2]; 10 mg/kg dye-conjugated peptide, tail vein injection, 1, 2, 4 and 6 hours after injection)	quantified fluorescence signal in mouse brain compared with control group (Dye) ([2]; 10 mg/kg, tail vein injection, after 1 hour of the injection)	half-life ([2]; 10 mg/kg, tail vein injection) [h]	Content of the transporter peptid in the brain tissue ([3]; brain collected one hour after injection, individual mouse)	Injection dose/brain tissue weight ([3]; one hour after injection, individual mouse)	average transport efficiency to the brain ([3]; one hour after injection, mean of 2 mice)	distribution of fluorescent signal in mice (IVIS) [2, 4]	quantified fluorescence signal in mouse brain ([2]; 1 mg/kg, tail vein injection)	half-life ([2]; 1 mg/kg, tail vein injection) [h]
CC[C@H](C)[C@H](NC(=O)[C@@H](N)CC(=O)O)C(=O)N[C@@H](CO)C(=O)N[C@H](C(=O)N[C@@H](CC(C)C)C(=O)N[C@@H](CCSC)C(=O)N[C@@H](CCCCN)C(=O)N[C@@H](CCC(=O)O)C(=O)N[C@@H](Cc1ccc(O)cc1)C(=O)N[C@@H](CCC(N)=O)C(=O)O)C(C)C [PT-034, DISVLMKEYQ]	about 8%	~40	~42	~56	enriched in the brain and spine	high level of fluorescent signal	~5	25.9 µg and 25.5 µg	23.48% ID/g of brain and 22.09% ID/g of brain	22.79 % ID/g of brain	–	–	–
CC[C@H](C)[C@H](NC(=O)[C@@H](N)CC(=O)O)C(=O)N[C@@H](CO)C(=O)N[C@H](C(=O)N[C@@H](CC(C)C)C(=O)N[C@@H](CCSC)C(=O)N[C@@H](CCCCN)C(=O)N[C@@H](CCC(=O)O)C(=O)N[C@@H](Cc1ccc(O)cc1)C(=O)N[C@@H](CC(=O)O)C(=O)O)C(C)C [PT-001, DISVLMKEYD] (H-DISVLMKEYD-OH)	–	–	–	–	–	–	–	–	–	–	enriched in the brain and spine	high levels of fluorescent signals	~5
CC[C@H](C)[C@H](NC(=O)[C@@H](N)CC(=O)O)C(=O)N[C@@H](CO)C(=O)N[C@H](C(=O)N[C@@H](CC(C)C)C(=O)N[C@@H](CCSC)C(=O)N[C@@H](CCCCN)C(=O)N[C@@H](CCC(=O)O)C(=O)N[C@@H](Cc1ccc(O)cc1)C(=O)N[C@@H](CC(N)=O)C(=O)O)C(C)C [PT-031, DISVLMKEYN] (H-DISVLMKEYN-OH)	–	–	–	–	–	–	–	–	–	–	enriched in the brain and spine	high levels of fluorescent signals	~5
CC[C@H](C)[C@H](NC(=O)[C@@H](N)CC(=O)O)C(=O)N[C@@H](CO)C(=O)N[C@H](C(=O)N[C@@H](CC(C)C)C(=O)N[C@@H](CC(=O)O)C(=O)N[C@@H](CCCCN)C(=O)N[C@@H](CCC(=O)O)C(=O)N[C@@H](Cc1ccc(O)cc1)C(=O)N[C@@H](CC(=O)O)C(=O)O)C(C)C [PT-025, DISVLDKEYD] (H-DISVLDKEYD-OH; N-terminus and C-terminus assumed)	–	–	–	–	–	–	–	–	–	–	enriched in the brain and spine	high levels of fluorescent signals	~5
